# ChEMBL document CHEMBL5523766 (J Med Chem, 2024)
# How the values were obtained:
# ATR/ATRIP = ATR/ATRIP (Homo sapiens, UniProt Q13535); test: Inhibition of ATR/ATRIP (unknown origin) using 5-FAM-AK-17 as substrate preincubated with compound for 10 mins followed by ATP addition and measured after 240 mins by mobility shift assay; type: protein-complex assay
# Granta-519 [1] = test: Induction of apoptosis in human Granta-519 cells assessed as viable cells at 2000 nM incubated for 48 hrs by Annexin-V-FITC/propidium iodide staining based flow cytometry (reference value: 92.7 %); type: functional; conditions: read-out: Activity
# Granta-519 [2] = test: Antiproliferative activity against human Granta-519 cells assessed as inhibition of cell growth incubated for 72 hrs by MTS assay; type: functional, cell-based; conditions: Granta-519, 72 h
# A2780 = test: Antiproliferative activity against human A2780 cells assessed as inhibition of cell growth incubated for 72 hrs by MTS assay; type: functional, cell-based; conditions: A2780, 72 h
# OCI-Ly10 = test: Antiproliferative activity against human OCI-Ly10 cells assessed as inhibition of cell growth incubated for 72 hrs by MTS assay; type: functional, cell-based; conditions: OCI-Ly10, 72 h
# LoVo = test: Antiproliferative activity against human LoVo cells assessed as inhibition of cell growth incubated for 72 hrs by MTS assay; type: functional, cell-based
# HCT-116 = test: Antiproliferative activity against human HCT-116 cells assessed as inhibition of cell growth incubated for 72 hrs by MTS assay; type: functional, cell-based; conditions: HCT-116, 72 h
# NCI-H446 = test: Antiproliferative activity against human NCI-H446 cells assessed as inhibition of cell growth incubated for 72 hrs by MTS assay; type: functional, cell-based; conditions: NCI-H446, 72 h
# HT-29 = test: Antiproliferative activity against human HT-29 cells assessed as inhibition of cell growth incubated for 72 hrs by MTS assay; type: functional, cell-based; conditions: HT-29, 72 h
# SUD4 = test: Antiproliferative activity against human SU-DHL-4 cells assessed as inhibition of cell growth incubated for 72 hrs by MTS assay; type: functional, cell-based; conditions: SU-DHL-4, 72 h
# DLD-1 = test: Antiproliferative activity against human DLD-1 cells assessed as inhibition of cell growth incubated for 72 hrs by MTS assay; type: functional, cell-based; conditions: DLD-1, 72 h
# CAPAN-1 = test: Antiproliferative activity against human CAPAN-1 cells assessed as inhibition of cell growth incubated for 72 hrs by MTS assay; type: functional, cell-based; conditions: CAPAN-1, 72 h
# PC-3 = test: Antiproliferative activity against human PC-3 cells assessed as inhibition of cell growth incubated for 72 hrs by MTS assay; type: functional, cell-based; conditions: PC-3, 72 h
# Granta-519 [3] = test: Induction of cell cycle arrest in human Granta-519 cells assessed as accumulation of cells at G1 phase at 2000 nM incubated for 24 hrs by propidium iodide staining based flow cytometry (reference value: 45.83 %); type: functional
# Granta-519 [4] = test: Induction of cell cycle arrest in human Granta-519 cells assessed as accumulation of cells at S phase at 2000 nM incubated for 24 hrs by propidium iodide staining based flow cytometry (reference value: 44.81 %); type: functional
# Granta-519 [5] = test: Induction of apoptosis in human Granta-519 cells assessed as early apoptotic cells at 2000 nM incubated for 48 hrs by Annexin-V-FITC/propidium iodide staining based flow cytometry (reference value: 3.75 %); type: functional
# Granta-519 [6] = test: Induction of apoptosis in human Granta-519 cells assessed as late apoptotic cells at 2000 nM incubated for 48 hrs by Annexin-V-FITC/propidium iodide staining based flow cytometry (reference value: 3.07 %); type: functional
# Granta-519 [7] = test: Induction of apoptosis in human Granta-519 cells assessed as necrotic cells at 2000 nM incubated for 48 hrs by Annexin-V-FITC/propidium iodide staining based flow cytometry (reference value: 0.429 %); type: functional
# Chain of ATR/ATRIP (Q13535 whole entry): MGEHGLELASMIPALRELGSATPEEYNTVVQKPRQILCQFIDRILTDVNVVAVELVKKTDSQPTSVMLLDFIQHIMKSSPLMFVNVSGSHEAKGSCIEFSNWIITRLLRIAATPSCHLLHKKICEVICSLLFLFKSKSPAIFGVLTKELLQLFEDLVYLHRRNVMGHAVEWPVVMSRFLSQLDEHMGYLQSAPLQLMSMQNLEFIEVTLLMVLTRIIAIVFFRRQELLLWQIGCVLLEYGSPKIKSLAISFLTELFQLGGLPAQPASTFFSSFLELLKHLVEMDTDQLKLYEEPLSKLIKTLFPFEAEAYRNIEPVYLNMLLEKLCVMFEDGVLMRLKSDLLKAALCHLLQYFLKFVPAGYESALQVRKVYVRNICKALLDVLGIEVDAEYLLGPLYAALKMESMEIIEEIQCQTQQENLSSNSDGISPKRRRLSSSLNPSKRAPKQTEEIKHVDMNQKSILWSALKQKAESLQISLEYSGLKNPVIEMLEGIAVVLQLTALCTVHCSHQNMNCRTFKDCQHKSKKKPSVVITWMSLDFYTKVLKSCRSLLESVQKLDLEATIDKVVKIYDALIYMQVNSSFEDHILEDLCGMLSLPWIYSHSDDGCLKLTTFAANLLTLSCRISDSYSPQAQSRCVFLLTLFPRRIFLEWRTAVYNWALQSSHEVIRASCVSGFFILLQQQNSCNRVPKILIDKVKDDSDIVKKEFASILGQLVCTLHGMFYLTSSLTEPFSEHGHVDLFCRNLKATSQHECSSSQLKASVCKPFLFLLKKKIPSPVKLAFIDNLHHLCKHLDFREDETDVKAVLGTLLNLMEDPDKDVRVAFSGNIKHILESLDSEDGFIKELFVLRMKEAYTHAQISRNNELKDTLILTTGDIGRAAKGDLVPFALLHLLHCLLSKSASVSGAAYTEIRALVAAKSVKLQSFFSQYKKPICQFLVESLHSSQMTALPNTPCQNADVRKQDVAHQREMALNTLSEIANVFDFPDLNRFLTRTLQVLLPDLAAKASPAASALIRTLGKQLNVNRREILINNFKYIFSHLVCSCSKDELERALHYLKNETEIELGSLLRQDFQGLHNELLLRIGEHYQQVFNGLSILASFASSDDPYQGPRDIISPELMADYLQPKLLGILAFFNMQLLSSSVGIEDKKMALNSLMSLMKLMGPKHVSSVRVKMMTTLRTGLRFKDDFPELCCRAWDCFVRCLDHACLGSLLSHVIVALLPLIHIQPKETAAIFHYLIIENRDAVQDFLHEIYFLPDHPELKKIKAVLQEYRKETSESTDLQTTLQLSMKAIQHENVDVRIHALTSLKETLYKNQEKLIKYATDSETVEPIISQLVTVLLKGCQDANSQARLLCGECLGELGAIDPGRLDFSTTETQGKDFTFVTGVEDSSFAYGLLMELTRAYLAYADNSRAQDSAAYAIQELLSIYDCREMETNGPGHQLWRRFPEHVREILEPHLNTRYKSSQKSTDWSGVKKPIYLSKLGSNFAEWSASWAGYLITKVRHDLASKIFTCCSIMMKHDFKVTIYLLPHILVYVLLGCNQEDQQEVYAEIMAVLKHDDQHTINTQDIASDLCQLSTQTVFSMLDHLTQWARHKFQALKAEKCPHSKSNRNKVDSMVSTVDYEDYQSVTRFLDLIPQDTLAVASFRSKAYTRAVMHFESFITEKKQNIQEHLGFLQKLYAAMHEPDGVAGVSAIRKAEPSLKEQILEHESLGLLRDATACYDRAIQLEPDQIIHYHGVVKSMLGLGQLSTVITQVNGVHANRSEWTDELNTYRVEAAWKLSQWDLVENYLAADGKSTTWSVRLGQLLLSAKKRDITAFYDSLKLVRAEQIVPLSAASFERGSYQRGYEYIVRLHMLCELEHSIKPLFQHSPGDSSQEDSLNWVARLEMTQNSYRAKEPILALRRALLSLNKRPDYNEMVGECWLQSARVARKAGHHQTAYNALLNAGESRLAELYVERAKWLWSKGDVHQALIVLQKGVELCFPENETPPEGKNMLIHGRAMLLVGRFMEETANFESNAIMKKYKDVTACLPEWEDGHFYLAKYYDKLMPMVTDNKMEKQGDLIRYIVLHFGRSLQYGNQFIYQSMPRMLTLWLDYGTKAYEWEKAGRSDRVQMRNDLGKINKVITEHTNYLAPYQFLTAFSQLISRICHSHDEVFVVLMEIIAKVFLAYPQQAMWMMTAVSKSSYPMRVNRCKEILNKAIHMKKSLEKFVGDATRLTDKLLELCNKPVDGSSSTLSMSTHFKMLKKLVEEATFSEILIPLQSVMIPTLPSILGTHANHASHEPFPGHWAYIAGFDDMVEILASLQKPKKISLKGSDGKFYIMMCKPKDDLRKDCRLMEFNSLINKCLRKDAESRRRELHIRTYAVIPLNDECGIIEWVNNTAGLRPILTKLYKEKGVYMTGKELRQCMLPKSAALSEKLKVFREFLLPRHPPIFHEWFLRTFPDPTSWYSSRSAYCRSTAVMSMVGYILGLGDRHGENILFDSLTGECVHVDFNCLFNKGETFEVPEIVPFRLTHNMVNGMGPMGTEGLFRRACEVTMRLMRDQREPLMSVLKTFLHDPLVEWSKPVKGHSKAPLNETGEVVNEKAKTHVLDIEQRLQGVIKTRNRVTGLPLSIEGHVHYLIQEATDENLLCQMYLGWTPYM
# Chain of ATR/ATRIP (Q8WXE1 whole entry, further chain): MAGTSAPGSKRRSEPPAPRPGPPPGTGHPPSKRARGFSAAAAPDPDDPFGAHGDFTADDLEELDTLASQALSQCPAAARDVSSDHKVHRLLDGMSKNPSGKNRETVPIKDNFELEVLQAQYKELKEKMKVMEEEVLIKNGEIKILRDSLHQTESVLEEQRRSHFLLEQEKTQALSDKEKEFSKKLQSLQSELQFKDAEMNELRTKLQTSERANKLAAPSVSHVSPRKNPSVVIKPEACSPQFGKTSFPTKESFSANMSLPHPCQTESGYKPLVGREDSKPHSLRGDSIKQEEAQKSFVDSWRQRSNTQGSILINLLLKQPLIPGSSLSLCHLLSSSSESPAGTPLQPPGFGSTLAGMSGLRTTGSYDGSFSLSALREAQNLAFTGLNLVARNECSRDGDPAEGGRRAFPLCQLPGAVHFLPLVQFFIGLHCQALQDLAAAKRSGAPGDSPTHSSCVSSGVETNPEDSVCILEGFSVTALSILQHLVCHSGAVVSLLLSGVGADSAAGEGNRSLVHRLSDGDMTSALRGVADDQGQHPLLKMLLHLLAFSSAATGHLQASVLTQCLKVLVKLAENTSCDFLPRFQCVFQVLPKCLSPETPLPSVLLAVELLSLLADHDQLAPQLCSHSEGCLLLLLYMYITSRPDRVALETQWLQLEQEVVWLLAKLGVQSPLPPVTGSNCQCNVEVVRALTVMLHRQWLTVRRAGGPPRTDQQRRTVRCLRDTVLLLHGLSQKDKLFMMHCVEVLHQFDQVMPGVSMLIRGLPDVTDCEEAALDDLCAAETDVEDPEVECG
IC50 (ATR/ATRIP),SMILES,further results
53.1 nM,C[C@@H]1COCCN1c1nc(-c2ccc3[nH]ccc3c2)nc2c1ccn2S(C)(=O)=O,–
3690 nM,C[C@@H]1COCCN1c1nc(-c2ccnc3cccnc23)nc2c1ccn2S(C)(=O)=O,–
–,C[C@@H]1COCCN1c1cc(C2(S(C)(=O)=O)CC2)nc(-c2cccc3[nH]ccc23)n1,viability at 2 µM (Granta-519 [1]): 80.6%; IC50 (Granta-519 [2]): 500 nM; IC50 (A2780): 460 nM; IC50 (OCI-Ly10): 1030 nM; IC50 (LoVo): 850 nM; IC50 (HCT-116): 1470 nM; IC50 (NCI-H446): 3.9 µM; IC50 (HT-29): 2940 nM; IC50 (SUD4): 2380 nM; IC50 (DLD-1): 3.47 µM; IC50 (CAPAN-1): 7.05 µM; IC50 (PC-3): 8.43 µM; Activity (Granta-519 [3]): 35.65%; Activity (Granta-519 [4]): 61.62%; Activity (Granta-519 [5]): 9.18%; Activity (Granta-519 [6]): 9.46%; Activity (Granta-519 [7]): 0.742%
43.5 nM,C[C@@H]1COCCN1c1cc(N2CCCS2(=O)=O)nc(-c2cccc3[nH]ccc23)n1,–
9.2 nM,C[C@@H]1COCCN1c1nc(-c2cc(C(F)(F)F)cc3[nH]ccc23)nc2c1ccn2S(C)(=O)=O,–
2.3 nM,C[C@@H]1COCCN1c1nc(-c2cccc3[nH]ccc23)nc2c1ccn2S(C)(=O)=O,–
630 nM,C[C@@H]1COCCN1c1nc(-c2cnc3ccccc3c2)nc2c1ccn2S(C)(=O)=O,–
5.8 nM,C[C@@H]1COCCN1c1nc(-c2cccc3[nH]ccc23)nc2c1cnn2S(C)(=O)=O,–
7.8 nM,C[C@@H]1COCCN1c1cc(C2CCCCS2(=O)=O)nc(-c2cccc3[nH]ccc23)n1 (stereo partly drawn),–
270 nM,C[C@@H]1COCCN1c1nc(-c2cccc3[nH]ccc23)nc2c1ccn2S(=O)(=O)c1ccccc1,–
8 nM,CC(C)S(=O)(=O)n1ccc2c(N3CCOC[C@H]3C)nc(-c3cccc4[nH]ccc34)nc21,–
9.4 nM,C[C@@H]1COCCN1c1nc(-c2cc(C#N)cc3[nH]ccc23)nc2c1ccn2S(C)(=O)=O,–
28 nM,C[C@@H]1COCCN1c1nc(-c2cccc3sccc23)nc2c1ccn2S(C)(=O)=O,–
32.1 nM,C[C@@H]1COCCN1c1nc(-c2cccc3[nH]ccc23)nc2c1CS(=O)(=O)C2,–
3670 nM,Cc1ccc(S(=O)(=O)n2ccc3c(N4CCOC[C@H]4C)nc(-c4cccc5[nH]ccc45)nc32)cc1,–
684 nM,C[C@@H]1COCCN1c1nc(-c2cccc3occc23)nc2c1ccn2S(C)(=O)=O,–

IC50 (ATR/ATRIP),SMILES,further results
5.3 nM,COc1cc(-c2nc(N3CCOC[C@H]3C)c3ccn(S(C)(=O)=O)c3n2)c2cc[nH]c2c1,–
5.3 nM,C[C@@H]1COCCN1c1nc(-c2cccc3[nH]ccc23)nc2c1ccn2S(=O)(=O)N(C)C,–
746 nM,C[C@@H]1COCCN1c1cc(C2(S(=O)(=O)N(C)C)CC2)nc(-c2cccc3[nH]ccc23)n1,–
3.3 nM,C[C@@H]1COCCN1c1cc(N(C2CC2)S(C)(=O)=O)nc(-c2cccc3[nH]ccc23)n1,–
9.4 nM,C[C@@H]1COCCN1c1cc(C2CCCS2(=O)=O)nc(-c2cccc3[nH]ccc23)n1 (stereo partly drawn),–
10200 nM,C[C@@H]1COCCN1c1nc(-c2cccc3[nH]ccc23)nc2c1ccn2S(=O)(=O)c1ccc(-c2ccccc2)cc1,–
39.5 nM,C[C@@H]1COCCN1c1nc(-c2cccc3ccccc23)nc2c1ccn2S(C)(=O)=O,–
625 nM,C[C@@H]1COCCN1c1nc(-c2ccc3nccn3c2)nc2c1ccn2S(C)(=O)=O,–
84.9 nM,C[C@@H]1COCCN1c1nc(-c2cccc3[nH]ccc23)nc2c1ccn2S(=O)(=O)c1cccs1,–
7.8 nM,CC(C)N(c1cc(N2CCOC[C@H]2C)nc(-c2cccc3[nH]ccc23)n1)S(C)(=O)=O,–
205 nM,C[C@@H]1COCCN1c1nc(-c2cccc3[nH]ccc23)nc2c1ccn2S(=O)(=O)C1CCCCC1,–
4.4 nM,C[C@@H]1COCCN1c1nc(-c2cc(Cl)cc3[nH]ccc23)nc2c1ccn2S(C)(=O)=O,–
4.3 nM,CCS(=O)(=O)n1ccc2c(N3CCOC[C@H]3C)nc(-c3cccc4[nH]ccc34)nc21,–
245 nM,C[C@@H]1COCCN1c1nc(-c2ccc3[nH]cnc3c2)nc2c1ccn2S(C)(=O)=O,–
46.9 nM,C[C@@H]1COCCN1c1nc(-c2cncc3ccccc23)nc2c1ccn2S(C)(=O)=O,–
3.8 nM,C[C@@H]1COCCN1c1nc(-c2cccc3[nH]ccc23)nc2c1ccn2S(=O)(=O)C1CC1,–
